Test results: publication PMC11865978, “Cellular Activity of CQWW Nullomer-Derived Peptides” (ACS Omega, 2025)

Columns and labels:
Assay type in all cases: cell-based, human
[1] = system: GSK-3; assay: Reverse phase protein array (RPPA); conditions: peptides at 3 μM, 3 h and 24 h (peptide 7: 24 h only), seven cell lines; fold difference vs water control
From the text: The phenotypic effect of the peptides was visualized by live cell imaging (Figure 1C, IncuCyte live cell imager) and also quantified via image analysis of cells labeled with the cell painting reagents (see Supporting Information) followed by image analysis using Cell Profiler (cellprofiler.org). Multiparametric outputs from Cell Profiler were processed using Phenonaut[46] [v 2.0.3] (see Jupyter notebook ‘Phenonaut_processing_of_nullomer_data.ipynb’ in the Aminonaut repository for methods and code used). […] Peptides 2, 5, and 7 were deemed to have the most merit for mode of action determination using reverse phase protein arrays (RPPAs) (see Supporting Information for methods). […]
growth and stemness was further supported by the addition of laminin extracellular matrix (Cultrex 3446-005-01, 4-10 mg/mL) to the growth media and to create pre-coated flasks/384w plates. Cells were cultured in T75 cm2 flasks and passaged as follows: Glioma stem cells generally grow slowly (~60hrs doubling time, excepting GCGR-E57 cells ~24hrs) and lag phase was exacerbated by sparse seeding. Cell confluence is generally ~80 -90% prior to passaging, whereby the culture media was aspirated, the cells washed (PBS) and Accutase solution (Sigma A6964, 1 mL) was added to detach the cells, which were then incubated at 37 °C for <5 minutes. Cells were resuspended in media and centrifuged for 3 minutes at 300 × g. Resuspended cells were typically split 1:5, 1:8 (GCGR-E57 cells) and 1:2, 1:4 for the remainder of cell lines, depending on requirements . Cells were passaged every 4-7 days to maintain health and growth and discarded after 3 months, whereupon a fresh batch of cells […]
Reverse Phase Protein Array (RPPA)
Culture media was aspirated and cells washed with wash media. Accutase solution (1mL) was used to detach the cells which were then incubated at 37 °C for 5 minutes. 10 mL of wash media was added, and the cells were pipetted into a 15 mL conical tube, after which they were centrifuged for 3 minutes at 300× g to form a pellet. Supernatant was aspirated, and cells resuspended in 5 mL of wash media. A 10 μL sample of the cell suspension was pipetted onto the reading surface of a DeNovix CellDrop automated cell counter and the reading was used to dilute the suspension in complete media to 250,000 cells/mL. 2 mL of this suspension was added to each well of 6-well plates to seed plates at 500,000 cells per well. 2 plates of each cell type (GCGR-E13, GCGR-E21, GCGR-E28, GCGR-E31, GCGR-E34, GCGR-E57 and GCGR-NS9FB_B) were seeded, one each for two nullomer dosage […]
timepoints (3 h and 24 h). The cells were incubated in the 6-well plates overnight, and dosing was carried out in the following morning. […]

[2] = system: GCGR-E21; conditions: 72 h
Experimental: (§1) Peptides were tested in an automated image-based high-content[42] cell painting[43],[44] assay that was originally developed to explore the mechanism of action of pharmacological and genetic perturbations within cells,[45] as well as a live cell imaging assay against six patient-derived glioblastoma cell lines (GCGR-E13, GCGR-E28, GCGR-E21, GCGR-E57, GCGR-E31, and GCGR-E34), covering classical, mesenchymal, and proneural subtypes, respectively (see Methods and Figure 1B–D), along with a healthy human fetal neuronal stem cell line (GCGR-NS9FB_B).
(§2) Cell survival was quantified by nuclei counts from the Hoechst dye-stained nuclei and IC50 values calculated along with 95% confidence intervals (Figure 1B; see Table S2 for full details). […]
(§3) High Content Phenotypic Screening assays
(§4) Cell lines (glioma stem cell lines and normal foetal neural stem cells) were seeded on laminin (10 µg/mL) coated 384-well plates (Greiner Bio-One, 781091) at 1,000 cells/well and incubated overnight at 37 °C and 5% CO2. Aqueous peptide solutions (10 mM) were further diluted to 1 mM in water containing 10 % glycerol and 0.01 % TX-100. […]
(§5) The cells were placed in an IncuCyte live cell imager (Essen BioScience) and imaged every three hours for 72 hours. Prior to fixation, the plates were removed from the IncuCyte and stained with Mitrotracker DeepRed (Invitrogen, M22426, 300 nM, 30 minutes). Cells were then fixed using 4 % formaldehyde and permeabilized with 0.1 % TX-100 in PBS. The cells were stained with ‘Cell Painting’ […]
(§6) assay reagents1: Hoechst 33342 (10 mg/mL stock, Molecular Probes, 1:5000), SYTO14 […]
(§7) BSA/PBS. The plates were imaged using an ImageXpress high content microscope (Molecular Devices). Cells were imaged with a 20× objective, covering 6 fields-of-view in each well. The data was then analyzed using a custom CellProfiler software pipeline using the University of Edinburgh high performance computing cluster. Dose response plots were calculated using HC StratomineR (corelifeanalytics.com). Nuclei count data was analyzed separately to generate cell survival metrics (normalized to aqueous glycerol/TX -100 control). […]

[3] = system: GCGR-E13; conditions: 72 h
Experimental: as §1, §2, §3, §4, §5, §6, §7

[4] = system: GCGR-E34; conditions: 72 h
Experimental: as §1, §2, §3, §4, §5, §6, §7

## H-RRRRRCQWW-NH2 [Peptide 2]
[1]
  GSK-3 regulation in RPPA: downregulation of GSK-3β
[2]
  IC50: 4.8 µM
[3]
  IC50: 4.4 µM
[4]
  IC50: 5.2 µM
